The term vapor or sublimation pressure denotes the pressure of vapour in equilibrium with the condensed phase.

“And” between values parts separate entries of the source, which are not always exact repeats. Equal values may be shown once. ± gives the expanded uncertainty stated by the source.

The values below come from the NIST ThermoML archive (doi:10.1021/je0602115).

The conditions of this data set: 313.15 K; Liquid; Closed cell (Static) method.

On to `CCOC(C)(C)C` [2-ethoxy-2-methylpropane], for which the “vapor or sublimation pressure” value is 31.62 ± 0.12 kPa and 31.63 ± 0.12 kPa and 31.64 ± 0.12 kPa.
With `CCCCCCC` [heptane], the “vapor or sublimation pressure” value is 12.32 ± 0.056 kPa and 12.33 ± 0.056 kPa and 12.31 ± 0.056 kPa.
Regarding `Cc1ccccc1` [toluene], the “vapor or sublimation pressure” value was 7.88 ± 0.041 kPa [middle of 4 runs].
